Source: PubChem BioAssay (NCI)
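These data come from cells grown in 96-well plates and exposed to compound for 48 hours at five concentrations. GI50 = concentration required for 50% inhibition of growth. TGI denotes the concentration required for complete inhibition of growth.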

Tests used:
Assay in all cases: NCI anticancer screen, dose series, 48 h
[1] = system: 786-0 renal
[2] = system: A498 renal
[3] = system: A549 NSCLC
[4] = system: ACHN renal
[5] = system: BT-549 breast
[6] = system: CAKI-1 renal
[7] = system: CCRF-CEM leukemia
[8] = system: COLO 205 colon
[9] = system: DU-145 prostate
[10] = system: EKVX NSCLC
[11] = system: HCC-2998 colon
[12] = system: HCT-116 colon
[13] = system: HCT-15 colon
[14] = system: HL-60(TB) leukemia
[15] = system: HOP-62 NSCLC
[16] = system: HOP-92 NSCLC
[17] = system: HS 578T breast
[18] = system: HT29 colon
[19] = system: IGROV1 ovarian
[20] = system: K-562 leukemia
[21] = system: KM12 colon
[22] = system: LOX IMVI melanoma
[23] = system: M14 melanoma
[24] = system: MALME-3M melanoma
[25] = system: MCF7 breast
[26] = system: MDA-MB-231 breast
[27] = system: MDA-MB-435
[28] = system: MOLT-4 leukemia
[29] = system: NCI-H226 lung
[30] = system: NCI-H23 lung
[31] = system: NCI-H522 lung
[32] = system: NCI/ADR-RES ovarian
[33] = system: OVCAR-4 ovarian
[34] = system: OVCAR-5 ovarian
[35] = system: OVCAR-8 ovarian
[36] = system: PC-3 prostate
[37] = system: RPMI-8226 leukemia
[38] = system: SF-268 CNS
[39] = system: SF-295 CNS
[40] = system: SF-539 CNS
[41] = system: SK-MEL-2 melanoma
[42] = system: SK-MEL-28 melanoma
[43] = system: SK-MEL-5 melanoma
[44] = system: SK-OV-3 ovarian
[45] = system: SN12C renal
[46] = system: SNB-19 CNS
[47] = system: SNB-75 CNS
[48] = system: SR leukemia
[49] = system: SW-620 colon
[50] = system: T-47D breast
[51] = system: TK-10 renal
[52] = system: U251 CNS
[53] = system: UACC-257 melanoma
[54] = system: UACC-62 melanoma
[55] = system: UO-31 renal

CCC1=Cc2cc(OC)ccc2OC12C=Cc1cc(OC)ccc1O2 (configuration not stated)
GI50 [1]: 676 nM | TGI [1]: > 100 µM | GI50 [2]: 250 nM | TGI [2]: 827 nM | GI50 [3]: 809 nM | TGI [3]: > 100 µM | GI50 [4]: 789 nM | TGI [4]: > 100 µM | GI50 [5]: 499 nM | TGI [5]: 3.81 µM | GI50 [6]: 504 nM | TGI [6]: > 100 µM | GI50 [7]: 398 nM | TGI [7]: > 100 µM | GI50 [8]: 326 nM | TGI [8]: 898 nM | GI50 [9]: 481 nM | TGI [9]: > 100 µM | GI50 [10]: 678 nM | TGI [10]: > 100 µM | GI50 [11]: 1710 nM | TGI [11]: > 100 µM | GI50 [12]: 518 nM | TGI [12]: > 100 µM | GI50 [13]: 450 nM | TGI [13]: > 100 µM | GI50 [14]: 331 nM | TGI [14]: > 100 µM | GI50 [15]: 594 nM | TGI [15]: > 100 µM | GI50 [16]: 964 nM | TGI [16]: > 26.7 µM | GI50 [17]: 298 nM | GI50 [18]: 347 nM | TGI [18]: 1270 nM | GI50 [19]: 739 nM | TGI [19]: > 100 µM | GI50 [20]: 379 nM | TGI [20]: > 100 µM | GI50 [21]: 423 nM | TGI [21]: > 100 µM | GI50 [22]: 484 nM | TGI [22]: > 100 µM | GI50 [23]: 366 nM | GI50 [24]: 624 nM | TGI [24]: > 100 µM | GI50 [25]: 389 nM | TGI [25]: > 100 µM | GI50 [26]: 964 nM | TGI [26]: > 100 µM | GI50 [27]: 228 nM | TGI [27]: 503 nM | GI50 [28]: 500 nM | TGI [28]: > 100 µM | GI50 [29]: 1060 nM | TGI [29]: > 100 µM | GI50 [30]: 1070 nM | TGI [30]: > 100 µM | GI50 [31]: 283 nM | TGI [31]: 936 nM | GI50 [32]: 421 nM | TGI [32]: > 100 µM | GI50 [33]: > 100 µM | TGI [33]: > 100 µM | GI50 [34]: 936 nM | TGI [34]: > 100 µM | GI50 [35]: 596 nM | TGI [35]: > 100 µM | GI50 [36]: 536 nM | TGI [36]: > 100 µM | GI50 [37]: 393 nM | TGI [37]: > 100 µM | GI50 [38]: 1040 nM | TGI [38]: > 100 µM | GI50 [39]: 418 nM | TGI [39]: > 100 µM | GI50 [40]: 328 nM | TGI [40]: 2150 nM | GI50 [41]: 303 nM | TGI [41]: 896 nM | GI50 [42]: > 100 µM | TGI [42]: > 100 µM | GI50 [43]: 1420 nM | TGI [43]: > 100 µM | GI50 [44]: 563 nM | TGI [44]: > 100 µM | GI50 [45]: 796 nM | TGI [45]: > 100 µM | GI50 [46]: 550 nM | TGI [46]: > 100 µM | GI50 [47]: 218 nM | TGI [47]: 720 nM | GI50 [48]: 327 nM | TGI [48]: > 100 µM | GI50 [49]: 385 nM | TGI [49]: > 100 µM | TGI [50]: > 100 µM | GI50 [51]: > 100 µM | TGI [51]: > 100 µM | GI50 [52]: 517 nM | TGI [52]: > 100 µM | GI50 [53]: 977 nM | TGI [53]: > 100 µM | GI50 [54]: 553 nM | TGI [54]: > 100 µM | GI50 [55]: 1150 nM | TGI [55]: > 100 µM
